The text below walks through data of PubChem BioAssay (NCI).

Structures are written as SMILES. “And” between values parts separate entries of the source, which are not always exact repeats. Identical values can stand only once.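 Following 48 hours of exposure in 96-well plates, responses at five concentrations were used to interpolate endpoints linearly. GI50 marks 50% less growth. TGI: concentration producing complete growth inhibition.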 A value given as a limit tells only on which side of the number the result lay.

Test systems include A498 renal; BT-549 breast; CCRF-CEM leukemia; HL-60(TB) leukemia; HS 578T breast; HT29 colon; MDA-MB-231 breast; SK-MEL-28 melanoma; SR leukemia; SW-620 colon.
Assay in all cases: DTP human tumour cell line panel, 48 h

For orientation: TGI means the concentration giving total growth inhibition. The low end stands for greater sensitivity of the cells, the high end for lower sensitivity of the cells. A word on the GI50: it is the concentration that inhibits growth by half. As for `N#CCCN(CCCN(CCCN(C(=O)Nc1ccccc1)c1ccccc1)C(=O)Nc1ccccc1)C(=O)Nc1ccccc1`, the TGI with A498 renal is above 100 µM; in the assay with BT-549 breast it was above 100 µM; in the assay on CCRF-CEM leukemia, > 8.75 µM and 43.1 µM; in the assay with HL-60(TB) leukemia it was > 8.75 µM and 15.6 µM; in the assay with HS 578T breast, above 100 µM; in the assay with HT29 colon, above 8.75 µM. The TGI in the assay on MDA-MB-231 breast was above 100 µM; in the assay with SK-MEL-28 melanoma it was above 100 µM; in the assay with SR leukemia it was above 8.75 µM; with SW-620 colon it was above 100 µM. In addition, the GI50 in the assay on BT-549 breast is above 100 µM; with CCRF-CEM leukemia it was 4.35 µM; in the assay on HL-60(TB) leukemia, 5.2 µM; in the assay with MDA-MB-231 breast, above 100 µM; with SK-MEL-28 melanoma it was above 100 µM; in the assay with SW-620 colon, above 100 µM.

Regarding `COC1=CC(c2ccc[nH]2)=N/C1=C\c1[nH]c(C)c(C(=O)CCCCC(=O)NC(C)(C)C)c1C`, the GI50 is 2.93 µM in the assay with A498 renal; 1.41 µM with BT-549 breast; 0.526 µM with CCRF-CEM leukemia; 1.91 µM in the assay on HL-60(TB) leukemia; 1.75 µM in the assay on HS 578T breast; 0.552 µM with HT29 colon. In addition, the GI50 is 0.957 µM in the assay with MDA-MB-231 breast, 1.59 µM in the assay on SK-MEL-28 melanoma, 0.395 µM with SR leukemia and 0.947 µM with SW-620 colon. Also, the TGI is 10.8 µM in the assay on A498 renal; 4.5 µM in the assay with BT-549 breast; 4.06 µM in the assay on HL-60(TB) leukemia; 4.26 µM with HS 578T breast; 3.11 µM with HT29 colon; 3.95 µM in the assay with MDA-MB-231 breast. The TGI turned out to be 3.2 µM in the assay with SK-MEL-28 melanoma, 2.35 µM with SR leukemia and 2.26 µM in the assay on SW-620 colon.

With `Nc1nc(N)c2nc(CNc3ccc(C(=O)NC(CC(=O)O)C(=O)O)cc3)cnc2n1` (stereo not given), the GI50 with A498 renal was 13.3 µM; in the assay on BT-549 breast, 1.03 µM; in the assay on CCRF-CEM leukemia, 0.422 µM; in the assay with HL-60(TB) leukemia, 0.756 µM; with HS 578T breast, 59.2 µM; with HT29 colon, 0.542 µM. Further, the GI50 is above 100 µM in the assay on MDA-MB-231 breast, above 100 µM with SK-MEL-28 melanoma, 0.267 µM with SR leukemia and 0.274 µM in the assay with SW-620 colon. In addition, the TGI in the assay with A498 renal, with BT-549 breast, in the assay on CCRF-CEM leukemia, in the assay on HL-60(TB) leukemia, with HS 578T breast and in the assay with HT29 colon was above 100 µM in each case. The TGI in the assay with MDA-MB-231 breast, with SK-MEL-28 melanoma, with SR leukemia and in the assay with SW-620 colon was above 100 µM each time.

As to `COc1ccc(C2CC(C)(O)Oc3cc4c(cc32)OCO4)cc1` (stereo not given), the TGI in the assay with A498 renal is above 91.6 µM; with BT-549 breast, above 88 µM; with CCRF-CEM leukemia, above 82.8 µM; in the assay with HL-60(TB) leukemia it was 68.4 µM; in the assay on HS 578T breast, 97.9 µM; in the assay on HT29 colon it was above 82.6 µM. Moreover, the concentration for total growth inhibition (TGI) was above 100 µM in the assay on MDA-MB-231 breast, above 100 µM in the assay on SK-MEL-28 melanoma, above 78.9 µM in the assay with SR leukemia and above 100 µM in the assay on SW-620 colon.

For the compound `CCC1CN2C(=N1)c1ccccc1-c1cc(Cl)ccc12` (stereo not given), the GI50 with A498 renal was 3.01 µM; with BT-549 breast, 13.2 µM; with CCRF-CEM leukemia it was 2.02 µM; with HL-60(TB) leukemia, 1.85 µM; with HS 578T breast, 6.58 µM; in the assay with HT29 colon, 2.01 µM. The GI50 is 3.4 µM in the assay with MDA-MB-231 breast, 4.97 µM with SK-MEL-28 melanoma, 1.51 µM with SR leukemia and 2.72 µM with SW-620 colon. Also, the TGI was found to be 12.1 µM in the assay with A498 renal; 50.3 µM in the assay with BT-549 breast; 4.79 µM in the assay with CCRF-CEM leukemia; 9.34 µM with HL-60(TB) leukemia; 34.5 µM in the assay with HS 578T breast; 7.11 µM in the assay on HT29 colon. The TGI with MDA-MB-231 breast came to 25.4 µM; in the assay on SK-MEL-28 melanoma, 18.4 µM; with SR leukemia it was 4.53 µM; in the assay with SW-620 colon, 15.5 µM.
